Patent publication US7183061B2, “Method of expressing Heliothis ecdysone receptor fusion protein” (Syngenta Limited, priority 1996, dated 2007)

Key:
[1] = molecular target: T1, glucocorticoid/Heliothis ecdysone chimeric receptor (UniProt O18473+P04150); test: HEK293 cells co-transfected with pcDNA3GRHEcR and pSWGRE4 (β-galactosidase reporter); assay type: cell-based, Heliothis virescens; design: expressed in transfected cells; host or cells: HEK293 (A8); settings: co-transformed HEK293 cells (FIG. 28)
T1 sequence (P04150+O18473 with tags, fused parts or gaps): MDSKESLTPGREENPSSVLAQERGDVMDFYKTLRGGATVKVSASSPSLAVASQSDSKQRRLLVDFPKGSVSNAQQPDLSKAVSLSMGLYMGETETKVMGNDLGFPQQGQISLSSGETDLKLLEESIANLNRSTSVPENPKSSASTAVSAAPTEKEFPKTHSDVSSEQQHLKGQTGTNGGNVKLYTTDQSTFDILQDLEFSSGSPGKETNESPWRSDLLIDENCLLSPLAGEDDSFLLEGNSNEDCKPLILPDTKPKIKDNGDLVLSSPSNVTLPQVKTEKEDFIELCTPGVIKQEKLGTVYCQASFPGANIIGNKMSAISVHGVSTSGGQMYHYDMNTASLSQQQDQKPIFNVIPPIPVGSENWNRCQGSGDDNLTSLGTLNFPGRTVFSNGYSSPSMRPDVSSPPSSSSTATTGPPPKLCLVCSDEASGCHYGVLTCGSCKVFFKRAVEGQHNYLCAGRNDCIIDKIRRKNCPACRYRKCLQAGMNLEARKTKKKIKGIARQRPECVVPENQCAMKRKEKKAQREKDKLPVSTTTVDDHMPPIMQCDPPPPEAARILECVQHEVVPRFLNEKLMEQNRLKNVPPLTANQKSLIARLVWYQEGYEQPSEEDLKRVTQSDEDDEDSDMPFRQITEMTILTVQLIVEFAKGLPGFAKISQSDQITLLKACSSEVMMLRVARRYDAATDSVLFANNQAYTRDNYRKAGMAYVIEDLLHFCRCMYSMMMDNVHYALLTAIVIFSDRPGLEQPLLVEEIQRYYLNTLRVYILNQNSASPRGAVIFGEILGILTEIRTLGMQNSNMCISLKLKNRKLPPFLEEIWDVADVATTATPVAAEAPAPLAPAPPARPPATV
Method: Transfections of mammalian cell lines (CHO-K1 Chinese hamster ovary) ATCC number CCL61 or cos-1 (Monkey cell line) were performed using either calcium phosphate precipitation (Gorman, Chapter 6 of “DNA cloning: a practical approach. Vol 2 D. M. Glover ed/.(1985) IRL Press, Oxford) or using LipofectAMINE (Gibco BRL Cat. No. 18324–012, following manufacturer's instructions). […] 293 cells were transfected using analogous methods.
The mammalian expression vector used in this experiment was pcDNA3 (Invitrogen). The GRHEcR 2.7 kb BamHI DNA fragment (isolated from pMF6GRHEcR) was introduced into the pcDNA3 BamHI vector. The recombinants were oriented by restriction enzyme mapping. The DNA sequence of the junctions was determined to ensure correct orientation and insertion (pcDNA3GRHEcR, FIG. 25).
The reporter plasmid for mammalian cell system was produced by taking pSWBGAL plasmid and replacing the CRESW SpeI/ClaI fragment for a synthetic 105 bp DNA fragment containing 4 copies of the glucocorticoid response element (GRE) and flanked by SpeI at the 5′ end and AflII at the 3′ end.
The two oligonucleotides were purified annealed and ligated to pSWBGAL SpeI/AflII to produce pSWGRE4 (FIG. 26).

[2] = tested on: HEcR with αRXR; test: Native HEcR reporter gene expression in HEK293 cells co-transfected with αRXR; assay type: cell-based, Heliothis virescens; settings: αRXR co-transfected along with effector and reporter
Description: A third effector construct was made with the 5′ end sequences of pSK16.1 by PCR. The PCR approach involved PCR amplifying the 5′ end sequences using a 5′ oligonucleotide containing a HindIII restriction cloning site, the Kozak consensus sequence followed by nucleotide sequence encoding for a Methionine start and two Arginines to be added to the 5′ end of the amplified fragment: (16H3K 5′ […] 3′; SEQ ID NO: 28), the 3′ oligonucleotide used was HecrNdeI. The resulting fragment was restriction enzyme digested, gel purified and subcloned with an NdeI/NotI 19R fragment into pcDNA3 NdeI/NotI vector. The plasmid was named pcDNA3H3 KHEcR.
The reporter plasmid to be co-transfected with the expression vector contained 4 copies of the Hsp27 ecdysone response element (Riddihough and Pelham, 1987) fused to β-globin promoter and the β-Galactosidase gene. The tandem repeats of the ecdysone response element were synthesised as two complementary oligonucleotides which when annealed produced a double stranded DNA molecule flanked by an SpeI site at the 5′ end and a ClaI site at the 3′ end:
The resulting 135 bp DNA fragment was ligated to the vector pSWBGAL SpeI/ClaI resulting in pSWREcR4 (FIG. 8). The co-transfection of the two plasmids should result in B-galactosidase activity in the presence of ligand. […]

CCc1ccc(C(=O)NN(C(=O)c2cc(C)cc(C)c2)C(C)(C)C)cc1 [RH5992, 3,5-dimethylbenzoic acid 1-1(1,1-dimethylethyl)-2(4-ethylbenzoyl)hydrazide]
chemical induced reporter gene activity [1]: significant chemical induced reporter gene activity | induction of reporter activity compared to the untreated cells [2]: 9 fold

CC(C)CC[C@@H](O)[C@](C)(O)[C@H]1CC[C@@]2(O)C3=CC(=O)[C@]4(O)C[C@@H](O)[C@@H](O)C[C@]4(C)[C@H]3[C@H](O)C[C@]12C [Muristerone A]
chemical induced reporter gene activity [1]: induction of reporter activity was observed | induction of reporter activity compared to the untreated cells [2]: 9 fold
